Measurements taken from BindingDB's records for doi:10.1038/sj.mp.4000336 (University of Toronto, 1998).
pKi: −log10 of the molar value.

Target: 5-hydroxytryptamine receptor 2A (Rattus norvegicus, UniProt P14842)
Sequence (P14842 whole entry): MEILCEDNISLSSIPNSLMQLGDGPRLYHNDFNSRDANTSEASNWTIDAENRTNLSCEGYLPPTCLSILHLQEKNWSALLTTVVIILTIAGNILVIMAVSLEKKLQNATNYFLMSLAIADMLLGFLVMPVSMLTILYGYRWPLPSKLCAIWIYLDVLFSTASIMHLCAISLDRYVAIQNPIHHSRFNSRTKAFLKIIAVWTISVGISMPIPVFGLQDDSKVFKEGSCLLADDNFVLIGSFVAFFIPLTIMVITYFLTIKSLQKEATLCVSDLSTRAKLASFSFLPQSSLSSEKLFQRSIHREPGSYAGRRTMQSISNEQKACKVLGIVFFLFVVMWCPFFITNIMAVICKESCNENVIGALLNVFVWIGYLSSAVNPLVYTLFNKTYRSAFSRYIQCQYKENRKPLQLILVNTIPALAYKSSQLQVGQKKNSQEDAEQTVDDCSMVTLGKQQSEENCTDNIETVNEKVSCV

Row | pKi | Compound
1 | 5.28 | CCN1CCC[C@H]1CNC(=O)c1c(OC)ccc(Br)c1OC
2 | 8.89 | O=C1C2CCCCC2C(=O)N1CCCCN1CCN(c2nsc3ccccc23)CC1 (stereo not drawn) [NSC_115368]
3 | 5.40 | CCN1CCC[C@H]1CNC(=O)c1c(O)c(Cl)cc(Cl)c1OC [3,5-Dichloro-N-(1-ethyl-pyrrolidin-2-ylmethyl)-2-hydroxy-6-methoxy-benzamide (raclopride)]
